Laboratory results reported in paper PMC8729037 (European journal of pharmacology, 2019).

Assays:
[1] = tested on: HER2; assay: Western blot, HER2 tyrosine phosphorylation; assay type: cell-based, human; settings: 100 nM NTS; for Inhibition of NTS-induced HER2 tyrosine phosphorylation (in words): 5 μM DPI or 5 mM Tiron, NCI-H838, Fig. 5
[2] = tested on: Nox and Duox enzymes; settings: ref Moody et al., 2018; Doroshow et al., 2012; cited from earlier work
[3] = tested on: EGFR; assay: Western blot, EGFR tyrosine phosphorylation; assay type: cell-based, human; settings: 100 nM NTS; for Inhibition of NTS-induced EGFR tyrosine phosphorylation (in words): 5 μM DPI or 5 mM Tiron, NCI-H838, Fig. 5; for Effect on NTS-induced EGFR tyrosine phosphorylation (in words): Fig. 6
[4] = tested on: ERK; assay: Western blot, ERK tyrosine phosphorylation; assay type: cell-based, human; settings: 100 nM NTS; for Inhibition of NTS-induced ERK tyrosine phosphorylation (in words): 5 μM DPI or 5 mM Tiron, NCI-H838, Fig. 5
[5] = tested on: c-Src, β-catenin, PYK-2 and the EGFR; settings: A549 cells; ref Moody et al., 2014; cited from earlier work
[6] = molecular target: neurotensin receptor 1 (Homo sapiens, UniProt P30989); assay: Receptor binding, inhibition of specific
[7] = tested on: NCI-H838 cells; assay: MTT proliferation assay, NCI-H838 cells; settings: lapatinib combined with SR48692, Fig. 7
[8] = tested on: tubulin; assay: Western blot, total tubulin; assay type: cell-based, human; settings: lapatinib; control; Fig. 6
[9] = tested on: PC-3M prostate cancer cells; settings: ref Valerie et al., 2011; cited from earlier work
[10] = tested on: EGFR; settings: NSCLC cell lines; ref Moody et al., 2014; cited from earlier work
[11] = tested on: neurotensin receptor 1; settings: colorectal cancer; ref Wang et al., 2010; cited from earlier work

Chain of neurotensin receptor 1 (Homo sapiens, UniProt P30989) (P30989 whole entry): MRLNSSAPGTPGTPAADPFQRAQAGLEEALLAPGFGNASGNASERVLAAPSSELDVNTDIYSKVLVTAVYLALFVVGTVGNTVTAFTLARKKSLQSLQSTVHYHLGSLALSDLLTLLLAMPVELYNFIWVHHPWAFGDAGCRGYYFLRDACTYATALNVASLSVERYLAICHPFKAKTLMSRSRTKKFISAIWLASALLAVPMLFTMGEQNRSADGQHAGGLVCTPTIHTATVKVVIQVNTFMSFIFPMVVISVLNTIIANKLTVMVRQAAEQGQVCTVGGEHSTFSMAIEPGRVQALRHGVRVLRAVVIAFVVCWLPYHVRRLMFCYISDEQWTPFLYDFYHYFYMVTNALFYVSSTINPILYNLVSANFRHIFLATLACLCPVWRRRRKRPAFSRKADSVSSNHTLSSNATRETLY

c1ccc2c(c1)[I+]c1ccccc1-2 [DPI, diphenylene iodonium]
Inhibition of NTS-induced HER2 tyrosine phosphorylation (in words) [1]: significantly inhibited | Inhibition of Nox and Duox enzymes (in words) [2]: inhibits all Nox and Duox enzymes | Inhibition of NTS-induced EGFR tyrosine phosphorylation (in words) [3]: significantly inhibited | Inhibition of NTS-induced ERK tyrosine phosphorylation (in words) [4]: significantly inhibited

CNC(=O)[C@H](Cc1c[nH]c2ccccc12)NC(=O)[C@@H](CC(=O)NO)CC(C)C [GM6001]
Effect on neurotensin-induced EGFR tyrosine phosphorylation (in words) [5]: blocked

COc1cc2ncnc(Nc3ccc(F)c(Cl)c3)c2cc1OCCCN1CCOCC1 [Gefitinib]
IC50 [6]: > 2000 nM

CS(=O)(=O)CCNCc1ccc(-c2ccc3ncnc(Nc4ccc(OCc5cccc(F)c5)c(Cl)c4)c3c2)o1 [Lapatinib]
Effect on NTS-induced HER2 tyrosine phosphorylation (in words) ([1]; 1 or 10 μM lapatinib, Fig. 6): significantly reduced | Effect on NTS-induced EGFR tyrosine phosphorylation (in words) ([3]; 0.1 μM lapatinib): impaired | Effect on NTS-induced EGFR tyrosine phosphorylation (in words) ([3]; 1 or 10 μM lapatinib): significantly reduced | Shift of SR48692 dose-response curve (in words) [7]: shifted the SR48692 dose-response curve to the left | IC50 [6]: > 2000 nM | Effect on total tubulin (in words) [8]: no effect | Effect on NTS-induced ERK tyrosine phosphorylation (in words) ([4]; 1 or 10 μM lapatinib, Fig. 6): significantly reduced

C[C@@H]1CN([C@H]2CC[C@](C#N)(c3ccc(F)cc3)CC2)CC[C@]1(C(=O)O)c1ccccc1 [Levocabastine]
IC50 [6]: > 2000 nM

CC(C)(C)n1nc(-c2ccc(Cl)cc2)c2c(N)ncnc21 [PP2]
Effect on neurotensin-induced EGFR tyrosine phosphorylation (in words) [5]: blocked

COc1cccc(OC)c1-c1cc(C(=O)NC2(C(=O)O)C3CC4CC(C3)CC2C4)nn1-c1ccnc2cc(Cl)ccc12 (stereo not drawn) [SR48692]
Sensitivity to ionizing radiation (in words) [9]: enhanced sensitivity to ionizing radiation | Effect on neurotensin-induced EGFR tyrosine phosphorylation (in words) [10]: reduced | IC50 [6]: 160 ± 25 nM

CCCC(=O)[O-].[Na+] [Sodium butyrate]
Neurotensin receptor 1 densities (in words) [11]: reduced

O=S(=O)(O)c1cc(O)c(O)c(S(=O)(=O)O)c1 [Tiron]
Inhibition of NTS-induced HER2 tyrosine phosphorylation (in words) [1]: significantly inhibited | Effect on neurotensin-induced EGFR tyrosine phosphorylation (in words) [10]: reduced | Inhibition of NTS-induced EGFR tyrosine phosphorylation (in words) [3]: significantly inhibited | Inhibition of NTS-induced ERK tyrosine phosphorylation (in words) [4]: significantly inhibited

COc1ccc2c(c1)CC[C@@H]1[C@@H]2CC[C@]2(C)[C@@H](NCCCCCCN3C(=O)C=CC3=O)CC[C@@H]12 [U73122]
Effect on neurotensin-induced EGFR tyrosine phosphorylation (in words) [5]: blocked
